± gives the expanded uncertainty stated by the source.
Key:
[1] = 298.15 K; 101.33 kPa; Liquid; Vibrating tube method
[2] = refractive index (Na D-line) (dimensionless); details: 298.15 K; 101.33 kPa; Liquid; Standard Abbe refractometry

| mass density [1] [kg/m3] | refractive index [2] | Compound |
| --- | --- | --- |
| 765.02 ± 0.24 | 1.42062 ± 0.0007 | CC1CCCCC1 [methylcyclohexane] |
| 831.47 ± 0.24 | 1.45598 ± 0.0007 | C1CCCCCCC1 [cyclooctane] |
| 773.8 ± 0.13 | 1.4236 ± 0.00068 | C1CCCCC1 [cyclohexane] |

Second part, the molecule before the results:

| Compound | mass density [1] [kg/m3] | refractive index [2] |
| --- | --- | --- |
| CCc1ccccc1 [ethylbenzene] | 862.51 ± 0.11 | 1.49304 ± 0.00068 |
| CCCCn1cc[n+](C)c1.COS(=O)(=O)[O-] [1-butyl-3-methylimidazolium methyl sulfate] | 1212.59 ± 0.41 | 1.47792 ± 0.0007 |
| c1ccccc1 [benzene] | 873.57 ± 0.11 | 1.49774 ± 0.00068 |

Reference: the NIST ThermoML archive (doi:10.1021/je300826t)
